The values below come from patent publication US9943504B2, “Arginine methyltransferase inhibitors and uses thereof” (Epizyme, Inc., priority 2013, dated 2018).

For this assay, the system named is mono-methyl arginine in RKO cells. The experiment in a line: RKO Methylation Assay (In Cell Western). Format: cell-based. To be noted: 72 hours, percent activation. From the text: RKO adherent cells were purchased from ATCC (American Type Culture Collection), Manassas, Va., USA. DMEM/Glutamax medium, penicillin-streptomycin, heat inactivated fetal bovine serum, 0.05% trypsin and D-PBS were purchased from Life Technologies, Grand Island, N.Y., USA. Odyssey blocking buffer, 800CW goat anti-rabbit IgG (H+L) antibody, and Licor Odyssey infrared scanner were purchased from Licor Biosciences, Lincoln, Nebr., USA. Mono-methyl arginine antibody was purchased from Cell Signaling Technology, Danvers, Mass., USA. Methanol was purchased from VWR, Franklin, Mass., USA. 10% Tween 20 was purchased from KPL, Inc., Gaithersburg, Md., USA. DRAQ5 was purchased from Biostatus Limited, Leicestershire, UK.
RKO adherent cells were maintained in growth medium (DMEM/Glutamax medium supplemented with 10% v/v heat inactivated fetal bovine serum and 100 units/mL penicillin-streptomycin) and cultured at 37° C. under 5% CO2.
Cell Treatment, in Cell Western (ICW) for Detection of Mono-Methyl Arginine and DNA Content.
RKO cells were seeded in assay medium at a concentration of 20,000 cells per mL to a poly-D-lysine coated 384 well culture plate (BD Biosciences 356697) with 50 μL per well. Compound (100 nL) from a 96-well source plate was added directly to 384 well cell plate. Plates were incubated at 37° C., 5% CO2 for 72 hours. After three days of incubation, plates were brought to room temperature outside of the incubator for ten minutes and blotted on paper towels to remove cell media. 50 μL of ice cold 100% methanol was added directly to each well and incubated for 30 min at room temperature. After 30 min, plates were transferred to a Biotek EL406 plate washer and washed 2 times with 100 μL per well of wash buffer (1×PBS). Next 60 μL per well of Odyssey blocking buffer (Odyssey Buffer with 0.1% Tween 20 (v/v)) were added to each plate and incubated 1 hour at room temperature. Blocking buffer was removed and 20 μL per well of primary antibody was added (mono-methyl arginine diluted 1:200 in Odyssey buffer with 0.1% Tween 20 (v/v)) and plates were incubated overnight (16 hours) at 4° C. Plates were washed 5 times with 100 μL per well of wash buffer. Next 20 μL per well of secondary antibody was added (1:200 800CW goat anti-rabbit IgG (H+L) antibody, 1:1000 DRAQ5 (Biostatus limited) in Odyssey buffer with 0.1% Tween 20 (v/v)) and incubated for 1 hour at room temperature. The plates were washed 5 times with 100 μL per well wash buffer then 2 times with 100 μL per well of water. Plates were allowed to dry at room temperature then imaged on the Licor Odyssey machine which measures integrated intensity at 700 nm and 800 nm wavelengths. Both 700 and 800 channels were scanned.
First, the ratio for each well was determined by:
Each plate included fourteen control wells of DMSO only treatment (minimum activation) as well as fourteen control wells for maximum activation treated with 20 μM of a reference compound. The average of the ratio values for each control type was calculated and used to determine the percent activation for each test well in the plate. Reference compound was serially diluted three-fold in DMSO for a total of nine test concentrations, beginning at 20 μM. Percent activation was determined and EC30 curves were generated using triplicate wells per concentration of compound.
Consider `CC(C)COc1ccc2[nH]nc(CN(C)CCN)c2c1` [Compound 2, N^1-((5-iso-butoxy-1H-indazol-3-yl)methyl)-N^1-methylethane-1,2-diamine], for which the “RGG ICW EC30” value was “B (“B” indicates an EC30 of 3.01-12.00 μM)”.

For `CNCCN(C)Cc1nn(C)c2ccc(OCC(C)C)cc12` [Compound 3, N^1-((5-iso-butoxy-1-methyl-1H-indazol-3-yl)methyl)-N^1,N^2-dimethylethane-1,2-diamine], the “RGG ICW EC30” value is reported as “C (“C” indicates an EC30 ≥ 12.01 μM)”.

On to `CNCCN(C)Cc1n[nH]c2ccc(OC(C)C(C)C)cc12` (centres unmarked) [Compound 4], for which the “RGG ICW EC30” value is given as “A (“A” indicates an EC30 ≤ 3.00 μM)”.

With `CNCCN(C)Cc1n[nH]c2ccc(OCCOC)cc12` [Compound 5, N^1-((5-(2-methoxyethoxy)-1H-indazol-3-yl)methyl)-N^1,N^2-dimethylethane-1,2-diamine], the “RGG ICW EC30” value is listed as “B (“B” indicates an EC30 of 3.01-12.00 μM)”.

In the case of `CNCCN(C)Cc1n[nH]c2ccc(OCCCOC)cc12` [Compound 6], the “RGG ICW EC30” value is “A (“A” indicates an EC30 ≤ 3.00 μM)”.

As to `CNCCN(C)Cc1n[nH]c2ccc(OCCc3ccccc3)cc12` [Compound 7], the “RGG ICW EC30” value is given as “A (“A” indicates an EC30 ≤ 3.00 μM)”.

Turning to `CNCCN(C)Cc1n[nH]c2ccc(OCCC(C)C)cc12` [Compound 8], the “RGG ICW EC30” value is given as “A (“A” indicates an EC30 ≤ 3.00 μM)”.

With `CNCCN(C)Cc1n[nH]c2ccc(OC(C)Cc3ccccc3)cc12` (centres unmarked) [Compound 9], the “RGG ICW EC30” value was “B (“B” indicates an EC30 of 3.01-12.00 μM)”.

For `CNCCN(C)Cc1n[nH]c2ccc(Oc3ccccc3)cc12` [Compound 10, N^1,N^2-dimethyl-N^1-((5-phenoxy-1H-indazol-3-yl)methyl)ethane-1,2-diamine], the “RGG ICW EC30” value is “B (“B” indicates an EC30 of 3.01-12.00 μM)”.

For `CNCCN(C)Cc1n[nH]c2ccc(OC3CCCC3)cc12` [Compound 11], the “RGG ICW EC30” value is listed as “A (“A” indicates an EC30 ≤ 3.00 μM)”.

With `CNCCN(C)Cc1n[nH]c2ccc(OCc3ccccn3)cc12` [Compound 12], the “RGG ICW EC30” value is on record as “B (“B” indicates an EC30 of 3.01-12.00 μM)”.

Take `CNCCN(C)Cc1n[nH]c2ccc(OCc3ccc(C#N)cc3)cc12` [Compound 13]: the “RGG ICW EC30” value was “B (“B” indicates an EC30 of 3.01-12.00 μM)”.

With `CNCCN(C)Cc1n[nH]c2ccc(OCc3cccc(C#N)c3)cc12` [Compound 14], the “RGG ICW EC30” value was “B (“B” indicates an EC30 of 3.01-12.00 μM)”.

Regarding `CNCCN(C)Cc1n[nH]c2ccc(OCc3cc[nH]n3)cc12` [Compound 17], the “RGG ICW EC30” value is reported as “C (“C” indicates an EC30 ≥ 12.01 μM)”.
